ChEMBL document CHEMBL4321874 (J Med Chem, 2020)
pEC50, pIC50: −log10 of the molar value. Activity calls are given as the source filed them. The rule behind the calls is not given here.

Tested on: not listed separately
Assay: Drug metabolism in reaction buffer containing 25 mM HEPES, 0.1% Tween 20, 0.01% BSA, 10 mM Mg(OAc)2, and 1 mM DTT at pH 7.5
Conditions: not given

Structure (SMILES)	Drug metabolism
Cc1n[nH]cc1-c1cc2nc([C@@H]3CC4CCN3CC4)[nH]c(=O)c2s1 [SIMUROSERTIB]	Metabolite not detected
Cc1n[nH]cc1-c1cc2nc(C34CCC(CC3)N4)[nH]c(=O)c2s1	Metabolite not detected

Target: Dual specificity tyrosine-phosphorylation-regulated kinase 1A (Homo sapiens, UniProt Q13627)
Assay: Inhibition of recombinant full-length human GST-tagged DYRK1A expressed in baculovirus expression system at 1000 nM by Z'-LYTE assay relative to control
Conditions: not given

Structure (SMILES)	inhibition
Cc1n[nH]cc1-c1cc2nc([C@@H]3CCCCN3)[nH]c(=O)c2s1	98%

Tested on: not listed separately
Assay: Drug metabolism in reaction buffer containing 50 mM HEPES, 0.1 mM orthovanadate, 0.01% BSA, 10 mM MgCl2, and 1 mM DTT at pH 7.5
Conditions: not given

Structure (SMILES)	Drug metabolism
Cc1n[nH]cc1-c1cc2nc([C@@H]3CC4CCN3CC4)[nH]c(=O)c2s1 [SIMUROSERTIB]	Metabolite not detected
Cc1n[nH]cc1-c1cc2nc(C34CCC(CC3)N4)[nH]c(=O)c2s1	Metabolite not detected

Target: CDC7/DBF4 (Cell division cycle 7-related protein kinase/Activator of S phase kinase) (Homo sapiens, UniProt O00311)
Assay: Inhibition of N-terminal GST-fused full-length human CDC7 (1 to 574 end residues)/DBF4 (1 to 674 residues) expressed in baculovirus expression system using MCM2 as substrate preincubated with enzyme for 10 mins prior to 1 uM ATP addition by HTRF transcreener ADP assay
Conditions: not given

Structure (SMILES)	pIC50
Cc1n[nH]cc1-c1cc2nc([C@]3(C)CCCN3)[nH]c(=O)c2s1	8.01
Cc1n[nH]cc1-c1cc2nc(C34CCC(CC3)N4)[nH]c(=O)c2s1	9.80

Target: Dual specificity protein kinase CLK2 (Homo sapiens) (UniProt P49760)
Assay: Inhibition of GST-tagged human recombinant CLK2 catalytic domain (137 to 498 residues) expressed in baculovirus expression system at 1000 nM by Z'-LYTE assay relative to control
Conditions: not given

Structure (SMILES)	inhibition
Cc1n[nH]cc1-c1cc2nc([C@@H]3CCCCN3)[nH]c(=O)c2s1	88%

Organism: Homo sapiens
Assay: Selectivity index, ratio of IC50 N-terminal GST-tagged human ROCK1 catalytic domain (1 to 477 residues) expressed in baculovirus expression system to IC50 for N-terminal GST-fused full-length human CDC7 (1 to 574 end residues)/DBF4 (1 to 674 residues) expressed in baculovirus expression system
Conditions: not given

Structure (SMILES)	Ratio IC50
Cc1n[nH]cc1-c1cc2nc([C@]3(C)CCCN3)[nH]c(=O)c2s1	28
Cc1n[nH]cc1-c1cc2nc(C34CCC(CC3)N4)[nH]c(=O)c2s1	600

Target: Death-associated protein kinase 1 (Homo sapiens, UniProt P53355)
Assay: Inhibition of recombinant human N-terminal GST-tagged DAPK1 catalytic domain (1 to 363 residues) expressed in baculovirus expression system at 1000 nM by Adapta kinase assay relative to control
Conditions: not given

Structure (SMILES)	inhibition
Cc1n[nH]cc1-c1cc2nc([C@@H]3CCCCN3)[nH]c(=O)c2s1	85%

Target: Rho-associated protein kinase 1 (Homo sapiens, UniProt Q13464)
Assay: Inhibition of N-terminal GST-tagged human ROCK1 catalytic domain (1 to 477 residues) expressed in baculovirus expression system using biotin-STK-substrate 2 as substrate preincubated with enzyme for 5 mins followed by ATP addition and measured after 2 hrs by TR-FRET assay
Conditions: not given

Structure (SMILES)	pIC50
Cc1n[nH]cc1-c1cc2nc([C@]3(C)CCCN3)[nH]c(=O)c2s1	6.57
Cc1n[nH]cc1-c1cc2nc(C34CCC(CC3)N4)[nH]c(=O)c2s1	7.02

Target: Dual specificity protein kinase CLK1 (Homo sapiens, UniProt P49759)
Assay: Inhibition of recombinant human GST-tagged CLK1 catalytic domain (129 to 484 residues) expressed in Escherichia coli at 1000 nM by Z'-LYTE assay relative to control
Conditions: not given

Structure (SMILES)	inhibition
Cc1n[nH]cc1-c1cc2nc([C@@H]3CCCCN3)[nH]c(=O)c2s1	81%

Target: Homeodomain-interacting protein kinase 4 (Homo sapiens) (UniProt Q8NE63)
Assay: Inhibition of recombinant full-length human N-terminal GST-tagged HIPK4 expressed in baculovirus expression system at 1000 nM by Z'-LYTE assay relative to control
Conditions: not given

Structure (SMILES)	inhibition
Cc1n[nH]cc1-c1cc2nc([C@@H]3CCCCN3)[nH]c(=O)c2s1	87%

Tested on: Mus musculus
Assay: Increase in cyclin B1 expression in tumor in BALB/c mouse xenografted with human COLO205 cells at 100 mg/kg, po measured for 16 hrs post-treatment by Western blot analysis
Assay type: functional, organism-based
Conditions: not given

Structure (SMILES)	Activity
Cc1n[nH]cc1-c1cc2nc([C@@H]3CCCCN3)[nH]c(=O)c2s1	Active

Target: Death-associated protein kinase 3 (Homo sapiens) (UniProt O43293)
Assay: Inhibition of full-length human GST-tagged DAPK3 expresssed in baculovirus expression system at 1000 nM by Z'-LYTE assay relative to control
Conditions: not given

Structure (SMILES)	inhibition
Cc1n[nH]cc1-c1cc2nc([C@@H]3CCCCN3)[nH]c(=O)c2s1	92%

Target: Myotonin-protein kinase (Homo sapiens) (UniProt Q09013)
Assay: Inhibition of kinase tracer 236 binding to recombinant full-length human GST-tagged DMPK expressed in baculovirus expression system at 1000 nM by Lanthascreen Eu kinase binding assay relative to control
Conditions: not given

Structure (SMILES)	inhibition
Cc1n[nH]cc1-c1cc2nc([C@@H]3CCCCN3)[nH]c(=O)c2s1	95%

Target: Dual specificity tyrosine-phosphorylation-regulated kinase 1B (Homo sapiens, UniProt Q9Y463)
Assay: Inhibition of recombinant full-length human GST-tagged DYRK1B expressed in baculovirus expression system at 1000 nM by Z'-LYTE assay relative to control
Conditions: not given

Structure (SMILES)	inhibition
Cc1n[nH]cc1-c1cc2nc([C@@H]3CCCCN3)[nH]c(=O)c2s1	96%

Target: Casein kinase I isoform gamma-2 (Homo sapiens) (UniProt P78368)
Assay: Inhibition of recombinant full-length human His-tagged CSNK1G2 expressed in baculovirus expression system at 1000 nM by Z'-LYTE assay relative to control
Conditions: not given

Structure (SMILES)	inhibition
Cc1n[nH]cc1-c1cc2nc([C@@H]3CCCCN3)[nH]c(=O)c2s1	87%

Tested on: not listed separately
Assay: Drug metabolism in reaction buffer containing 20 mM HEPES, 10 mM Mg(OAc)2, and 1 mM DTT at pH 7.5
Conditions: not given

Structure (SMILES)	Drug metabolism
Cc1n[nH]cc1-c1cc2nc([C@@H]3CC4CCN3CC4)[nH]c(=O)c2s1 [SIMUROSERTIB]	Metabolite not detected
Cc1n[nH]cc1-c1cc2nc(C34CCC(CC3)N4)[nH]c(=O)c2s1	Metabolite not detected

Organism: Homo sapiens
Assay: Selectivity index, ratio of IC50 for N-terminal GST-tagged full-length human CDK2 (1 to 298 residues)/Cyclin E (1 to 410 residues) expressed in baculovirus expression system to IC50 for N-terminal GST-fused full-length human CDC7 (1 to 574 end residues)/DBF4 (1 to 674 residues) expressed in baculovirus expression system
Conditions: not given

Structure (SMILES)	Ratio IC50
Cc1n[nH]cc1-c1cc2nc([C@]3(C)CCCN3)[nH]c(=O)c2s1	1000
Cc1n[nH]cc1-c1cc2nc(C34CCC(CC3)N4)[nH]c(=O)c2s1	9400

Tested on: Mus musculus
Assay: Effect on PARP cleavage in tumor in BALB/c mouse xenografted with human COLO205 cells at 100 mg/kg, po measured for 16 hrs post-treatment by Western blot analysis
Assay type: functional, organism-based
Conditions: not given

Structure (SMILES)	Activity
Cc1n[nH]cc1-c1cc2nc([C@@H]3CCCCN3)[nH]c(=O)c2s1	inactive

Target: Serine/threonine-protein kinase 17A (Homo sapiens) (UniProt Q9UEE5)
Assay: Inhibition of kinase tracer 236 binding to recombinant full-length human GST-tagged DRAK1 expressed in baculovirus expression system at 1000 nM by Lanthascreen Eu kinase binding assay relative to control
Conditions: not given

Structure (SMILES)	inhibition
Cc1n[nH]cc1-c1cc2nc([C@@H]3CCCCN3)[nH]c(=O)c2s1	99%

Tested on: not listed separately
Assay: Drug metabolism assessed as (4bS)-2-(3-Methyl-1H-pyrazol-4-yl)-5,6,7,8-tetrahydropyrido-[1',2':3,4]imidazo[1,5-a]thieno[3,2-d]pyrimidin-12(4bH)-one formaldehyde adduct formation at 5 nmol after 30 mins in presence of excess formaldehyde by QTOF-UPLC analysis
Conditions: not given

Structure (SMILES)	Drug metabolism
Cc1n[nH]cc1-c1cc2nc([C@@H]3CCCCN3)[nH]c(=O)c2s1	Metabolite detected

Tested on: COLO 205
Assay: Antiproliferative activity against human COLO205 cells assessed as reduction in cell growth after 3 days by CellTiter-Glo luminescence assay
Assay type: functional, cell-based
Conditions: COLO 205, 72 h

Structure (SMILES)	pEC50
Cc1n[nH]cc1-c1cc2nc([C@@H]3CC4CCN3CC4)[nH]c(=O)c2s1 [SIMUROSERTIB]	7.09

Target: Glycogen synthase kinase-3 alpha (Homo sapiens) (UniProt P49840)
Assay: Inhibition of kinase tracer 236 binding to N-terminal GST-tagged human full length GSK3alpha expressed in baculovirus expression system at 1000 nM by Lanthascreen Eu kinase binding assay relative to control
Conditions: not given

Structure (SMILES)	inhibition
Cc1n[nH]cc1-c1cc2nc([C@@H]3CCCCN3)[nH]c(=O)c2s1	89%

Target: CDK8/Cyclin C (Homo sapiens) (UniProt P49336+P24863)
Assay: Inhibition of kinase tracer 236 binding to recombinant full-length human His-tagged CDK8/CyclinC expressed in baculovirus expression system at 1000 nM by Lanthascreen Eu kinase binding assay relative to control
Conditions: not given

Structure (SMILES)	inhibition
Cc1n[nH]cc1-c1cc2nc([C@@H]3CCCCN3)[nH]c(=O)c2s1	87%

Tested on: not listed separately
Assay: Drug metabolism in aqueous media assessed as formaldehyde adduct formation at 5 nmol after 30 mins in presence of excess formaldehyde by QTOF-UPLC analysis
Conditions: not given

Structure (SMILES)	Drug metabolism
Cc1n[nH]cc1-c1cc2nc([C@@H]3CC4CCN3CC4)[nH]c(=O)c2s1 [SIMUROSERTIB]	Metabolite not detected
Cc1n[nH]cc1-c1cc2nc(C34CCC(CC3)N4)[nH]c(=O)c2s1	Metabolite not detected

Tested on: Mus musculus
Assay: In vivo inhibition of […] in BALB/c mouse xenografted with human COLO205 cells assessed as MCM2 phosphorylation at Ser 41 residue in tumor at 100 mg/kg, po measured for 16 hrs post-treatment by Western blot analysis
Assay type: functional, organism-based
Conditions: not given

Structure (SMILES)	inhibition
Cc1n[nH]cc1-c1cc2nc([C@@H]3CCCCN3)[nH]c(=O)c2s1	inactive

Target: Glycogen synthase kinase-3 beta (Homo sapiens) (UniProt P49841)
Assay: Inhibition of recombinant full-length human His-tagged GSK3beta expressed in baculovirus expression system at 1000 nM by Z'-LYTE assay relative to control
Conditions: not given

Structure (SMILES)	inhibition
Cc1n[nH]cc1-c1cc2nc([C@@H]3CCCCN3)[nH]c(=O)c2s1	89%

Target: Cyclin-dependent kinase 2/cyclin E1 (Homo sapiens, UniProt P24941)
Assay: Inhibition of N-terminal GST-tagged full-length human CDK2 (1 to 298 residues)/Cyclin E (1 to 410 residues) expressed in baculovirus expression system using histone H1 as susbtrate after 90 mins by Kinase-Glo luminescence assay
Conditions: not given

Structure (SMILES)	pIC50
Cc1n[nH]cc1-c1cc2nc([C@]3(C)CCCN3)[nH]c(=O)c2s1	5.00
Cc1n[nH]cc1-c1cc2nc(C34CCC(CC3)N4)[nH]c(=O)c2s1	5.82

Target: Dual specificity protein kinase CLK4 (Homo sapiens) (UniProt Q9HAZ1)
Assay: Inhibition of kinase tracer 236 binding to recombinant full-length human GST-tagged CLK4 expressed in baculovirus expression system at 1000 nM by Lanthascreen Eu kinase binding assay relative to control
Conditions: not given

Structure (SMILES)	inhibition
Cc1n[nH]cc1-c1cc2nc([C@@H]3CCCCN3)[nH]c(=O)c2s1	100%

Target: CDK9/cyclin T1 (Homo sapiens) (UniProt O60563+P50750)
Assay: Inhibition of full-length recombinant human His-tagged CDK9/Cyclin T1 expressed in baculovirus expression system at 1000 nM by Adapta kinase assay relative to control
Conditions: not given

Structure (SMILES)	inhibition
Cc1n[nH]cc1-c1cc2nc([C@@H]3CCCCN3)[nH]c(=O)c2s1	90%
